The values that follow come from BindingDB's records for doi:10.1021/jm00035a014 (University of Paris, 1994).

Where only a bound is given, the exact number is not on record here.

In test [1] the target is Glutamyl aminopeptidase (Oryctolagus cuniculus). Nature of the test: Inhibition of aminopeptidase A (APA).
The target of test [2] is Aminopeptidase N (Sus scrofa) (UniProt P15145). Kind of test: Inhibitory potency against aminopeptidase N (APN).
Aminopeptidase N (Sus scrofa), sequence (P15145 whole entry, looked up): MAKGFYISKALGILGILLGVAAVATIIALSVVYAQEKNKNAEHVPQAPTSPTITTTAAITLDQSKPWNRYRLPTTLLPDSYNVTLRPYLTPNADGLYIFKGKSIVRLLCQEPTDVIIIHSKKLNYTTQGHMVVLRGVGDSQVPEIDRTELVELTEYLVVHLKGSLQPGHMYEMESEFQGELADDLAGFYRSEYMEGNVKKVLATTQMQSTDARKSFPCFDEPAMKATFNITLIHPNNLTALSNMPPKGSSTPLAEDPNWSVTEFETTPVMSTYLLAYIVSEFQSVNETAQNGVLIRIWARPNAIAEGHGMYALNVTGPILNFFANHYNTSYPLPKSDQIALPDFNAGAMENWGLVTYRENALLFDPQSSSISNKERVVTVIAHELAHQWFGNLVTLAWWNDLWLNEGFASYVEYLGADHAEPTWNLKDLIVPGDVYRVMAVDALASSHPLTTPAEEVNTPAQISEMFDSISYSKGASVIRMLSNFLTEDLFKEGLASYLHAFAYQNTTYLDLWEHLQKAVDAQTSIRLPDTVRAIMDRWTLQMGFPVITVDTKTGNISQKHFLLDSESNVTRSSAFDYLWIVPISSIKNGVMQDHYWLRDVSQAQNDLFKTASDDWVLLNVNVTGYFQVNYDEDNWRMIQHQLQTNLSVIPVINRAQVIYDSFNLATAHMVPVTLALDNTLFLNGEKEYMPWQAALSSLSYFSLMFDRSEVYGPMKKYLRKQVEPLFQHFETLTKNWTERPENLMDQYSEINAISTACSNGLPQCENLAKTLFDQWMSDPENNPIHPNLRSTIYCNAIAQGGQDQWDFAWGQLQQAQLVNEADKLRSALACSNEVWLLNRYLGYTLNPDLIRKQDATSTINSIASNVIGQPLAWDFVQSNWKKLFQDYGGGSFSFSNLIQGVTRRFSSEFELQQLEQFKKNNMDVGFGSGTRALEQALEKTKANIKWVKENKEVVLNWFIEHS

The term Ki denotes a dissociation constant, usually derived from enzyme kinetics or from competition with a known ligand. `NC(CS)Cc1ccc(C(=O)O)cc1` (configuration not stated) [2-(4-Carboxy-phenyl)-1-mercaptomethyl-ethyl-ammonium] gave a Ki in test [1] of 2700 nM.
Compound `N[C@H](CCS)CCC(=O)O` [(S)-4-Amino-6-mercapto-hexanoic acid] registered an inhibition constant (Ki) in test [1] of 2000 nM.
In test [1], `NC(CS)Cc1cccc(C(=O)O)c1` (configuration not stated) [3-(2-Amino-3-mercapto-propyl)-benzoic acid] displayed a Ki of 840 nM.
Regarding `NC(CS)CC1CCCC(C(=O)O)C1` (configuration not stated) [2-(3-Carboxy-cyclohexyl)-1-mercaptomethyl-ethyl-ammonium], the inhibitory constant (Ki) in test [1] was greater than 3000 nM.
For orientation: IC50 means the concentration needed to halve the response being measured. Higher therefore signals weaker potency in that assay. With `NC(CC(=O)O)Cc1ccccc1` (configuration not stated) [3-Amino-4-phenyl-butyric acid], the 50% inhibitory concentration (IC50) in test [2] was determined as 800000 nM.
Compound `NC(CS)c1ccc(C(=O)O)cc1` (configuration not stated) [4-(1-Amino-2-mercapto-ethyl)-benzoic acid] displayed a Ki in test [1] greater than 3000 nM.
Compound `NC(CS)CC1CCC(CC(=O)O)CC1` (configuration not stated) [[4-(2-Amino-3-mercapto-propyl)-cyclohexyl]-acetic acid] returned an inhibition constant Ki in test [1] of 2800 nM.
Still for that read-out and setting: as for `NC(CS)CC1CCC(C(=O)O)CC1` (configuration not stated) [4-(2-Amino-3-mercapto-propyl)-cyclohexanecarboxylic acid], the figure is 1900 nM; as for `NC(CS)Cc1ccc(CC(=O)O)cc1` (configuration not stated) [[4-(2-Amino-3-mercapto-propyl)-phenyl]-acetic acid], 2200 nM.
Take `NC(CS)c1cccc(C(=O)O)c1` (configuration not stated) [1-(3-Carboxy-phenyl)-2-mercapto-ethyl-ammonium]: the Ki in test [1] is 2400 nM.
With `NC(Cc1ccccc1)CP(=O)(O)O` (configuration not stated) [1-Benzyl-2-phosphono-ethyl-ammonium], 500000 nM corresponded to half-maximal inhibition in test [2] (IC50).
Take `N[C@@H](CS)CCC(=O)O` [(R)-4-Amino-5-mercapto-pentanoic acid]: the Ki in test [1] amounted to 2300 nM.
